The test system of assay [1] is Abutilon theophrasti. The assay can be described thus: Post-emergence greenhouse spray test. It counts as in vivo. The conditions noted are these: about 3 weeks. The method, then: (§1) The required amount of active compound or formulation is dissolved in a few milliliters (2-3 ml) of the solvent (acetone or DMF), an emulsifier (1 ml) is added, if required, and the mixture is diluted with water to the desired concentration.
(§2) Mixtures are prepared by mixing a predetermined dissolved amount of the first active compound with the required amount of the second active compound (and, if desired, with additional active compounds/formulations or other ingredients), and then diluting the mixture with water to the desired concentration.
(§3) In pre- and post-emergence experiments, a surfactant (Renex 36) is usually added, at a concentration of 0.1%, to the spray solution.
(§4) The amount of active compound or formulation is chosen such that the desired application rate per ha is achieved.
(§5) Test plants are grown under controlled conditions (temperature and light). Once the plants have reached a height of 5-15 cm, the test compound or the combination of test compounds is applied by spraying such that the particular amounts of active compound desired are applied per unit area. The concentration of the spray liquor is chosen such that the desired amounts of active compound are in each case applied in 500 1 of water/ha.
(§6) After the spray application, the vessels containing the plants are stored in a greenhouse under constant conditions with respect to light and temperature.
(§7) After about 3 weeks, the degree of damage to the plants is rated in % damage in comparison to the development of the untreated control.
(§8) The figures denote: • 0%=no damage (like untreated control) • 100%=total destruction/damage • a.i.=active ingredient Flufenacet Tested as 60 WG • (I-31)/(I-34) tested as active compounds • * values calculated according to Colby

Assay [2] relates to Digitaria sanguinalis. The assay can be described thus: Post-emergence greenhouse spray test. The assay is classed as in vivo. The settings on record: about 3 weeks. The method, then: as §1, §2, §3, §4, §5, §6, §7, §8
Assay [3] has as its system Chenopodium album. In words: Post-emergence greenhouse spray test. It counts as in vivo. The conditions noted are these: about 3 weeks. The method, then:
as §1, §2, §3, §4, §5, §6, §7, §8

Assay [4] concerns Amaranthus retroflexus. The assay can be described thus: Post-emergence greenhouse spray test. It counts as in vivo. The conditions noted are these: about 3 weeks. The method, then: as §1, §2, §3, §4, §5, §6, §7, §8
Assay [5] deals with Solanum nigrum. In words: Post-emergence greenhouse spray test. The assay is classed as in vivo. The settings on record: about 3 weeks. The method, then:
as §1, §2, §3, §4, §5, §6, §7, §8

For assay [6], the system named is ROTIN. In words: Test in transplanted paddy rice (greenhouse), water-surface application. It counts as in vivo, Rotala. The conditions noted are these: 3 weeks after application. An excerpt:
(§9) Test in Transplanted Paddy Rice
(§10) To produce a preparation of active compound, 1 part by weight of an active compound combination according to the invention is mixed with the stated amount of solvent and, after addition of the stated amount of emulsifier, diluted with water to the desired concentration.
(§11) Vessels for planting (500 cm^2) are filled with soil from a rice field. In each case 3 rice plants (cultivar: Nipponbare, 2-3-leaf stage, height: about 15 cm) are planted into the center of the vessels for planting. Seeds of Cyperus, Echinochloa, Lindernia, Rotala and Elatine are sown into the same vessels for planting. The soil in the vessels is kept moist. After two days, each vessel for planting is flooded to a water depth of 2-3 cm.
(§12) Five days after the transplanting of the rice plants, the amount of active compound in the preparation described above is applied to the surface of the water in the vessels for planting using a pipette. The water depth in the vessels for planting is kept at 2-3 cm.
(§13) 3 weeks after the application of active compound, the efficacy is rated in % damage in comparison to the untreated control.
(§14) The figures denote • 0% no effect/damage (like untreated control) • 100% total destruction

In assay [7] the test system is LIDPY. Described as above. The assay is classed as in vivo, Lindernia. The settings on record: 3 weeks after application.
Description: as §9, §10, §11, §12, §13, §14

The subject of assay [8] is ELTTP. The description is as above. The assay is classed as in vivo, Elatine. The conditions noted are these: 3 weeks after application.
Description: as §9, §10, §11, §12, §13, §14

Assay [9] has as its system ECHSS. The assay is described as above. The assay is classed as in vivo, Echinochloa. The conditions noted are these: 135 g/ha, 3 weeks after application.
Description: as §9, §10, §11, §12, §13, §14

The subject of assay [10] is CYPDI. Described as above. The settings on record: 135 g/ha, 3 weeks after application. It counts as in vivo, Cyperus.
Description: as §9, §10, §11, §12, §13, §14

Molecules are shown by their SMILES.

In the case of `CC(C)N(C(=O)COc1nnc(C(F)(F)F)s1)c1ccc(F)cc1` [Flufenacet, N-(4-fluoro-phenyl)-N-i-propyl-2-(5-trifluoromethyl-1,3,4-thiadiazol-2-yl-oxy)-acetamide, reference compound], in assay [1] (125 g of ai/ha), the “Abutilon theophrasti observed (% damage)” value was 0%. Further, the “Digitaria sanguinalis observed (% damage)” value in [2] (125 g of ai/ha) was determined as 70%. In addition, the “Chenopodium album observed (% damage)” value in assay [3] (125 g of ai/ha) came to 0%. Besides, the “Amaranthus retroflexus observed (% damage)” value in assay [4] (125 g of ai/ha) is reported as 60%. For the same compound, the “Solanum nigrum observed (% damage)” value in [5] (125 g of ai/ha) was found to be 30%.
Regarding `Cn1nnn(CCOc2c(Cl)ccc(C(=O)C3C(=O)CCCC3=O)c2Cl)c1=O` [Example I-22, 2-[2,4-dichloro-3-[2-(4-methyl-5-oxo-4,5-dihydro-1H-tetrazol-1-yl)-ethoxy]-benzoyl]-1,3-cyclohexanedione], the “efficacy in % damage, Compound (I) alone” value in [6] (30 g/ha) amounted to 70%; in [7] (30 g/ha), 70%; in [8] (30 g/ha), 60%.
`CCN(C(=O)n1nnn(-c2ccccc2Cl)c1=O)C1CCCCC1` [fentrazamide, 4-(2-chloro-phenyl)-N-cyclohexyl-N-ethyl-4,5-dihydro-5-oxo-1H-tetrazole-1-carboxamide, reference compound]: the “efficacy in % damage, Compound (II) alone” value is given as 60% in assay [6] (135 g/ha); 70% in assay [9]; 60% in assay [10]; 60% in [7] (135 g/ha); 60% in assay [8] (135 g/ha).
In the case of `O=C1CC[C@@H](COc2c(Br)ccc(C(=O)C3C(=O)CCCC3=O)c2Br)N1` [Example I-31, (5S)-5-[[2,6-dibromo-3-[(2,6-dioxo-1-cyclohexyl)-carbonyl]-phenoxy]-methyl]-2-pyrrolidinone], the “Abutilon theophrasti observed (% damage)” value in [1] (15 g of ai/ha) stood at 0%; in assay [1] (30 g of ai/ha), 10%. Also, the “Chenopodium album observed (% damage)” value was determined as 0% in assay [3] (15 g of ai/ha) and 20% in assay [3] (30 g of ai/ha). Besides, the “Amaranthus retroflexus observed (% damage)” value in assay [4] (8 g of ai/ha), in assay [4] (15 g of ai/ha) and in [4] (30 g of ai/ha) was 0% throughout. Moreover, the “Solanum nigrum observed (% damage)” value in assay [5] (30 g of ai/ha) is 10%.
As for `O=C1CC[C@@H](COc2c(Cl)ccc(C(=O)C3C(=O)CCCC3=O)c2Cl)N1` [Example I-34, (5S)-5-[[2,6-dichloro-3-[(2,6-dioxo-1-cyclohexyl)-carbonyl]-phenoxy]-methyl]-2-pyrrolidinone], the “Digitaria sanguinalis observed (% damage)” value in [2] (15 g of ai/ha) and in assay [2] (30 g of ai/ha) was 0% each time. In addition, the “Chenopodium album observed (% damage)” value in assay [3] (15 g of ai/ha) and in assay [3] (30 g of ai/ha) was 90% in each case. Moreover, the “Amaranthus retroflexus observed (% damage)” value in assay [4] (15 g of ai/ha) and in assay [4] (30 g of ai/ha) was 0% in each case.

The values are drawn from patent publication US20050192182A1, “Herbicidal mixtures based on substituted aryl ketones” (priority 2001, published 2005).
